Like-named read-outs stand apart in the source and are kept apart here.
Key:
Format in all cases: biochemical
MMP-2 = target: T1, MMP-2 (Homo sapiens, UniProt P08253); test: P218 quenched fluorescence assay (MMP Microfluorometric Profiling Assay), MMP-2; details: for inhibition at 5 µM: read-out: MMP-2 % inhibition at 5 µM, inhibitor at 5 µM, given as I = x %
T1 sequence (P08253 110-660): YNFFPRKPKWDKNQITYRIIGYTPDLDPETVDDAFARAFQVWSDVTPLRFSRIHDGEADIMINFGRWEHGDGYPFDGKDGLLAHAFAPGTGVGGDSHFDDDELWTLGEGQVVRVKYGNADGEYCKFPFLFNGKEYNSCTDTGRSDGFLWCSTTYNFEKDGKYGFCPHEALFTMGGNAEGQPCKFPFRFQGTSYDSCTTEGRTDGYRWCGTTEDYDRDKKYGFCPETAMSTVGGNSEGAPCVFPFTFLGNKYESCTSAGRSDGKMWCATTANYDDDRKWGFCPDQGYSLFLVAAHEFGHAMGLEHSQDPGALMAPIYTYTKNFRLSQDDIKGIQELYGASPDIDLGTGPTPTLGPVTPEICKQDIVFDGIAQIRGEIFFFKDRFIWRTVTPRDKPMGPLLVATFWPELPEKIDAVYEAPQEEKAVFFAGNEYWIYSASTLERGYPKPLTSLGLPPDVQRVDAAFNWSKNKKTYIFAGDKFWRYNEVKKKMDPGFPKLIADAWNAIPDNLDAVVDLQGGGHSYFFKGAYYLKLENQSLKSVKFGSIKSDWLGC

MMP-3 = target: T2, MMP-3 (Homo sapiens, UniProt P08254); test: P218 quenched fluorescence assay (MMP Microfluorometric Profiling Assay), MMP-3; details: for inhibition at 5 µM: inhibitor at 5 µM, given as I = x %; for IC50: P218 substrate 6 µM, 25 min at 37 °C, pH 6.5
T2 construct: made in house; host or cells: CHO cells
Source text: (§1) The P218 quenched fluorescence assay (Microfluorometric Profiling Assay) is a modification of that originally described by C. G. Knight et al., FEBS Letters, 296, 263-266 (1992) for a related substrate and a variety of matrix metalloproteinases (MMPs) in cuvettes. The assay was run with each exemplary compound of the invention and the three MMPs, MMP-3, MMP-9 and MMP-2, analyzed in parallel, adapted as follows for a 96-well microtitre plate and a Hamilton AT® workstation.
(§2) P218 is a synthetic substrate containing a 4-acetyl-7-methoxycoumarin (MCA) group in the N-terminal position and a 3-(2,4-dinitrophenyl)-(L)-2,3-diaminopropionyl (DPA) group internally. This is a modification of a peptide reported by Knight (1992) that was used as a substrate for matrix metalloproteinases. Once the P218 peptide is cleaved (putative clip site at the Ala-Leu bond), the fluorescence of the MCA group can be detected on a fluorometer with excitation at 328 nm and emission at 393 nm. P218 is currently being produced by BACHEM Bioscience, Inc. exclusively for the Bayer Corp. P218 has the structure: H-MCA-Pro-Lys-Pro-Leu-Ala-Leu-DPA-Ala-Arg-NH2 (MW 1332.2)
Recombinant Human CHO Pro-MMP-3: Human CHO pro-stromelysin-257 (pro-MMP-3) was expressed and purified as described by T. J. Housley et al., J. Biol. Chem., 268, 4481-4487 (1993).
Activation of Pro-MMP-3: Pro-MMP-3 at 1.72 µM (100 µg/mL) in an MMP-3 activation buffer consisting of 5 mM Tris at pH 7.5, 5 mM CaCl2, 25 mM NaCl, and 0.005% Brij-35 was activated by incubation with TPCK (N-tosyl-(L)-phenylalanine chloromethyl ketone) trypsin (1:100 w/w to pro-MMP-3) at 25 °C for 30 min. The reaction was stopped by addition of soybean trypsin inhibitor (SBTI; 5:1 w/w to trypsin concentration).
(§3) Hamilton Microlab AT Plus®: The MMP-profiling assay was performed robotically using a Hamilton MicroLab AT Plus®. The Hamilton was programmed to: (1) serially dilute up to 11 potential inhibitors automatically using a 2.5 mM stock solution of the inhibitor in 100% DMSO; (2) distribute substrate followed by inhibitor into a 96-well Cytofluor plate; and (3) add a single enzyme to the plate with mixing to start the reaction. Subsequent plates for each additional enzyme were prepared automatically by beginning the program at the substrate addition point, remixing the diluted inhibitors, and beginning the reaction by addition of enzyme. In this way, all MMP assays were done using the same inhibitor dilutions.
(§4) Millipore Cytofluor II: Following incubation, the plate was read on a Cytofluor II fluorometric plate reader with excitation at 340 nm and emission at 395 nm with the gain set at 80.
(§5) Microfluorometric Reaction Buffer (MRB): Dilutions of test compounds, enzymes and P218 substrate for the microfluorometric assay were made in microfluorometric reaction buffer (MRB) consisting of 50 mM 2-(N-morpholino)ethanesulfonic acid (MES) at pH 6.5 with 10 mM CaCl2, 150 mM NaCl, 0.005 % Brij-35 and 1% DMSO.
(§6) MMP Microfluorometric Profiling Assay. The assay was done with a final P218 concentration of 6 µM, approximately 0.5 to 0.8 nM of activated MMP (one MMP per 96-well plate), and with variable inhibitor concentrations. The Hamilton MicroLab AT Plus® was programmed to serially dilute up to 11 compounds from a 2.5 mM stock (100% DMSO) to 10-times the final compound concentrations in the assay. Initially, the instrument delivered various amounts of microfluorometric reaction buffer (MRB) to a 96-tube rack of 1 mL Marsh dilution tubes. The instrument picked up 20 µL inhibitor (2.5 mM) and mixed it with buffer in row A of the Marsh rack, resulting in a 50 µM inhibitor concentration. The inhibitors were then serially diluted to 10, 5, 1, 0.2, 0.05 and 0.01 µM. […] The instrument re-mixed and loaded 14.5 µL of diluted compound from rows A to G in the Marsh rack to the corresponding rows in the microtiter plate.

MMP-9 = target: T3, MMP-9 (Homo sapiens, UniProt P14780); test: P218 quenched fluorescence assay (MMP Microfluorometric Profiling Assay), MMP-9; details: for inhibition at 5 µM: read-out: MMP-9 % inhibition at 5 µM, inhibitor at 5 µM, given as I = x %; for IC50: P218 substrate 6 µM, 25 min at 37 °C, pH 6.5
T3 construct: made in house
Source text: as §1, §2
Human Recombinant Pro-MMP-9: Human recombinant pro-gelatinase B (pro-MMP-9) derived from U937 cDNA as described by S. M. Wilhelm et al., J. Biol. Chem., 264, 17213-17221 (1989) was expressed as the full-length form using a baculovirus protein expression system. The pro-enzyme was purified using methods previously described by M.S. Hibbs, et al., J. Biol. Chem., 260, 2493-500 (1984).
Activation of Pro-MMP-9 : Pro-MMP-9 (20 µg/mL) in an MMP-9 activation buffer consisting of 50 mM Tris at pH 7.4, 150 mM NaCl, 10 mM CaCl2 and 0.005% Brij-35 was activated by incubation with a 0.5 mM p-aminophenylmercuric acetate (APMA) for 3.5 h at 37 °C. The enzyme was dialyzed against the same buffer to remove APMA.
as §3, §4, §5
as §6, with “plate. […]” for “plate.”

[1] = P218 substrate 6 µM, 25 min at 37 °C, pH 6.5, read-out: MMP-2 IC50

T2 sequence (P08254 100-477): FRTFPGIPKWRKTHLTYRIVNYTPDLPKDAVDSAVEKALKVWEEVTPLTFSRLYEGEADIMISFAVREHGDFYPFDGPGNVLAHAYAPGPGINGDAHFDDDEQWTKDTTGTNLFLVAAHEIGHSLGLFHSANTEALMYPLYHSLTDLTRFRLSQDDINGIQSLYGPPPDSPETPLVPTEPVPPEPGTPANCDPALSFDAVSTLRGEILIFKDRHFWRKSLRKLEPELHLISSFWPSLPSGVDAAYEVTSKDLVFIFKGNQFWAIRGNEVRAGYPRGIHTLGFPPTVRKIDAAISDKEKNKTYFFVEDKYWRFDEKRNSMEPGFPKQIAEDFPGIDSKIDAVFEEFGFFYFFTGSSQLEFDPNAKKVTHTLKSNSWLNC
T3 sequence (P14780 107-707 limits assumed): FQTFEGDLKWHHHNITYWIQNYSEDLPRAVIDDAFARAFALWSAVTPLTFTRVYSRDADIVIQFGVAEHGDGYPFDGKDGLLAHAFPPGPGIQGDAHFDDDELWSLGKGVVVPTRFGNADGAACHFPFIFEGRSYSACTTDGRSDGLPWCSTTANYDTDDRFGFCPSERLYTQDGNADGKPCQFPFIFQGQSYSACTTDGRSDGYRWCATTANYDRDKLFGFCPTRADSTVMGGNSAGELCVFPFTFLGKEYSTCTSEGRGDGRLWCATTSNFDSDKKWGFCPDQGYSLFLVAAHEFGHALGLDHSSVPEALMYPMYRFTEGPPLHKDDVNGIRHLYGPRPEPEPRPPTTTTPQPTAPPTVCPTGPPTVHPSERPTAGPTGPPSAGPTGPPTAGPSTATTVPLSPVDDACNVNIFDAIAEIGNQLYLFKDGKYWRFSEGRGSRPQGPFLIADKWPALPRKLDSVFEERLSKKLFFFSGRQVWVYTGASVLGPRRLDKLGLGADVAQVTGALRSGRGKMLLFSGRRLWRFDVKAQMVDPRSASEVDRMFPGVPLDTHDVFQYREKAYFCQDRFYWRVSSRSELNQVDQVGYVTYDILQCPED

Row | Compound | inhibition at 5 µM (MMP-2) [%] | inhibition at 5 µM (MMP-3) [%] | inhibition at 5 µM (MMP-9) [%] | IC50 (MMP-2) [nM] | IC50 (MMP-3) [nM] | IC50 (MMP-9) [nM] | IC50 (MMP-2; [1]) [nM]
1 | COc1ccc(C(=O)CC(CCN2C(=O)c3ccccc3C2=O)C(=O)O)cc1 (stereo not shown) [Compound G, 4-(4-methoxyphenyl)-4-oxo-2-(2-phthalimidoethyl)butyric acid, reference compound] | 48 | 29 | 46 |  |  |  | 
2 | CCCCCCCOc1ccc(C(=O)CC(CCN2C(=O)c3ccccc3C2=O)C(=O)O)cc1 (stereo not shown) [Example 10, 4-(4-heptyloxyphenyl)-4-oxo-2-(2-phthalimidoethyl) butyric acid] |  |  |  | 40 | 61 | 85 | 
3 | O=C(CC(CCCc1ccccc1)C(=O)O)c1ccc(C#CCCCCO)cc1 (stereo not shown) [Example 3, 4-(4-(6-hydroxyhex-12-ynyl)phenyl)-4-oxo-2-(3-phenylpropyl)butyric acid] |  | 43 |  |  |  | 4350 | 640
4 | CCCCCCCCCCCCCCOc1ccc(C(=O)CC(CCN2C(=O)c3ccccc3C2=O)C(=O)O)cc1 (stereo not shown) [Compound F, 4-(4-tetradecyloxyphenyl)-4-oxo-2-(2-phthalimidoethyl)butyric acid, reference compound] | 16 | 18 | 6 |  |  |  | 
5 | CC(C)(C)[Si](C)(C)OCCCCC#Cc1ccc(C(=O)CC(CCN2C(=O)c3ccccc3C2=O)C(=O)O)cc1 (stereo not shown) [Compound E, reference compound] |  |  |  |  | 5100 | 5050 | 1450
6 | CCCCCCc1ccc(C(=O)CC(CCN2C(=O)c3ccccc3C2=O)C(=O)O)cc1 (stereo not shown) [Example 7, 4-(4-hexylphenyl)-4-oxo-2-(2-phthalimidoethyl) butyric acid] |  |  |  | 295 | 1040 | 400 | 
7 | O=C(CC(CCN1C(=O)c2ccccc2C1=O)C(=O)O)c1ccc(OCCOCc2ccccc2)cc1 (stereo not shown) [Example 13, 4-(4-(2-benzyloxyethoxy)phenyl)-4-oxo-2-(2-phthalimidoethyl)butyric acid] |  |  |  | 53 | 82 | 355 | 
8 | O=C(CC(CCN1C(=O)c2ccccc2C1=O)C(=O)O)c1ccc(C#CCO)cc1 (stereo not shown) [Example 6, 4-(4-(3-hydroxyprop-1-ynyl)phenyl)-4-oxo-2-(2-phthalimidoethyl)butyric acid] |  |  |  | 130 | 565 | 76 | 
9 | O=C(CC(CCN1C(=O)c2ccccc2C1=O)C(=O)O)c1ccccc1 (stereo not shown) [Compound D, 4-phenyl-4-oxo-2-(2-phthalimidoethyl)butyric acid, reference compound] |  |  |  | 1400 | 5000 | 1000 | 
10 | O=C(CC(CCCc1ccccc1)C(=O)O)c1ccccc1 (stereo not shown) [Compound C, 4-phenyl-4-oxo-2-(3-phenylpropyl)butyric acid, reference compound] | 36 | 20 | 23 |  |  |  | 
11 | O=C(CC(CCCc1ccccc1)C(=O)O)c1ccc(C#CCO)cc1 (racemic) [Example 1, 4-(4-(3-hydroxyprop-1-ynyl)phenyl)-4-oxo-2-(3-phenylpropyl)butyric acid] |  |  |  |  | 3300 | 1850 | 485
12 | O=C(CC(CCN1C(=O)c2ccccc2C1=O)C(=O)O)c1ccc(C#CCCCCO)cc1 (stereo not shown) [Example 5, 4-(4-(6-hydroxyhex-1-ynyl)phenyl)-4-oxo-2-(2-phthalimidoethyl)butyric acid] |  |  |  | 92 | 870 | 150 | 
13 | CCCCC#Cc1ccc(C(=O)CC(CCCc2ccccc2)C(=O)O)cc1 (stereo not shown) [Example 2, 4-(4-(hex-1-ynyl)phenyl)-4-oxo-2-(3-phenylpropyl)butyric acid] |  |  |  | 460 | 1870 | 1570 | 
14 | CCCCCCCCCCOc1ccc(C(=O)CC(CCN2C(=O)c3ccccc3C2=O)C(=O)O)cc1 (stereo not shown) [Example 12, 4-(4-decyloxyphenyl)-4-oxo-2-(2-phthalimidoethyl) butyric acid] |  |  |  |  |  | 360 | 
15 | O=C(CC(CCN1C(=O)c2ccccc2C1=O)C(=O)O)c1ccc(Br)cc1 (stereo not shown) [Compound B, 4-(4-bromophenyl)-4-oxo-2-(2-phthalimidoethyl) butyric acid, reference compound] |  | 46 |  | 2400 |  | 1450 | 
16 | CCCCCCOc1ccc(C(=O)CC(CCN2C(=O)c3ccccc3C2=O)C(=O)O)cc1 (stereo not shown) [Example 11, 4-(4-hexyloxyphenyl)-4-oxo-2-(2-phthalimidoethyl) butyric acid] |  |  |  | 79 | 114 | 68 | 
17 | CCCCC#Cc1ccc(C(=O)CC(CCN2C(=O)c3ccccc3C2=O)C(=O)O)cc1 (stereo not shown) [Example 4] |  |  |  | 42 | 125 | 20 | 
